In US20220274927A1, “MEMBRANE-ACTIVE ANTI-BACTERIAL COMPOUNDS AND USES THEREOF” (Trustees of Dartmouth College, priority 2019, published 2022):
In brackets after ≈: the same amount, converted by molar mass. Read-outs that look alike come from different tables or passages of the source.

Tested on: methicillin-resistant S. aureus (FPR3757)
Assay: MIC against clinical MRSA strain FPR3757 in Mueller-Hinton broth (CLSI)
Format: cell-based, Staphylococcus aureus
Text: The first set of compounds evaluated were analogs at the C-7 and C-8 positions of the initial quinolone hit DNAC-2 since the other HTS hits identified (data not shown) were substituted at these positions (Table 1). Applicants first explored modification at the C-7 position with a small series of electron-donating and withdrawing substituents. […] However, analogs containing electron donating groups at C-7 including ethyl 7, benzyloxy 8, methoxy 9 and methylthio 10 are weakly active displaying MICs of 320-640 μg/mL indicating electron-donating substituents at C-7 are poorly tolerated. […] The C-8 position was evaluated with trifluoromethyl 4 and trifluoromethoxy 5 containing the optimal C-7 substituents. Both 4 and 5 are equipotent to the corresponding C-7 analogs 2 and 3 indicating some flexibility of the quinolone scaffold.

[1] = MRSA clinical strain FPR3757, Mueller-Hinton broth, CLSI guidelines, complete inhibition of observable growth
[2] = Staphylococcus aureus, MRSA, MRSA clinical strain FPR3757, Mueller-Hinton broth, CLSI guidelines, complete inhibition of observable growth, read-out: MIC
[3] = Staphylococcus aureus, MRSA, MRSA clinical strain FPR3757, Mueller-Hinton broth, CLSI guidelines, complete inhibition of observable growth

MIC [1] [µg/mL] | MIC [2] [µg/mL] | SMILES | also measured
8 (≈ 17.5 µM) | – | FC(F)(F)Oc1cccc(Nc2cc(C(F)(F)F)nc3c(OC(F)(F)F)cccc23)c1 [Compound 1] | –
5 (≈ 17.8 µM) | 4 to 8 (≈ 14.2 to 28.5 µM) | O=c1cc(C(F)(F)F)[nH]c2cc(C(F)(F)F)ccc12 [Compound 2] | –
– | 4 to 8 (≈ 13.5 to 26.9 µM) | O=c1cc(C(F)(F)F)[nH]c2cc(OC(F)(F)F)ccc12 [Compound 3] | –
– | 2 to 4 (≈ 7.11 to 14.2 µM) | O=c1cc(C(F)(F)F)[nH]c2c(C(F)(F)F)cccc12 [Compound 4] | –
– | 20 (≈ 80.8 µM) | O=c1cc(C(F)(F)F)[nH]c2cc(Cl)ccc12 [Compound 6] | –
320 (≈ 1330 µM) | 320 to 640 (≈ 1330 to 2650 µM) | CCc1ccc2c(=O)cc(C(F)(F)F)[nH]c2c1 [Compound 7] | –
640 (≈ 2000 µM) | – | O=c1cc(C(F)(F)F)[nH]c2cc(OCc3ccccc3)ccc12 [Compound 8] | –
640 (≈ 2630 µM) | 320 to 640 (≈ 1320 to 2630 µM) | COc1ccc2c(=O)cc(C(F)(F)F)[nH]c2c1 [Compound 9] | fold loss of potency (MIC) relative to the comparator (MRSA FPR3757 MIC ratio): 80-160 fold
640 (≈ 2470 µM) | – | CSc1ccc2c(=O)cc(C(F)(F)F)[nH]c2c1 [Compound 10] | –
– | – | FC(F)(F)c1ccc2c(Nc3ccccc3)cc(C(F)(F)F)nc2c1 [Compound 11] | MIC (Staphylococcus aureus, MRSA): 128 µg/mL (≈ 359 µM)
– | 320 (≈ 803 µM) | CC(C)c1ccccc1Nc1cc(C(F)(F)F)nc2cc(C(F)(F)F)ccc12 [Compound 12] | –
– | – | CC(=O)c1cccc(Nc2cc(C(F)(F)F)nc3cc(C(F)(F)F)ccc23)c1 [Compound 13] | MIC (Staphylococcus aureus, MRSA): > 128 µg/mL
– | > 16 | FC(F)(F)c1ccc2c(Nc3ccccc3Cl)cc(C(F)(F)F)nc2c1 [Compound 15] | –
0.25 (≈ 0.64 µM) | 0.125 to 0.25 (≈ 0.32 to 0.64 µM) | FC(F)(F)c1ccc2c(Nc3cccc(Cl)c3)cc(C(F)(F)F)nc2c1 [Compound 16] | –
0.12 (≈ 0.307 µM) | 0.125 to 0.25 (≈ 0.32 to 0.64 µM) | FC(F)(F)c1ccc2c(Nc3ccc(Cl)cc3)cc(C(F)(F)F)nc2c1 [Compound 17] | –
– | – | Fc1cccc(Nc2cc(C(F)(F)F)nc3cc(C(F)(F)F)ccc23)c1 [Compound 18] | fold loss of potency (MIC) relative to the comparator (MRSA FPR3757 MIC ratio): 16-64 fold
– | 0.25 (≈ 0.574 µM) | FC(F)(F)c1ccc2c(Nc3cccc(Br)c3)cc(C(F)(F)F)nc2c1 [Compound 19] | –
– | 0.25 (≈ 0.518 µM) | FC(F)(F)c1ccc2c(Nc3cccc(I)c3)cc(C(F)(F)F)nc2c1 [Compound 20] | –
0.12 to 0.25 | 0.125 to 0.25 (≈ 0.319 to 0.637 µM) | Fc1ccc(Nc2cc(C(F)(F)F)nc3cc(C(F)(F)F)ccc23)cc1F [Compound 21] | –
– | > 16 | OCc1cccc(Nc2cc(C(F)(F)F)nc3cc(C(F)(F)F)ccc23)c1 [Compound 23] | –
– | > 64 | COc1cccc(Nc2cc(C(F)(F)F)nc3cc(C(F)(F)F)ccc23)c1 [Compound 25] | –
– | 0.25 (≈ 0.589 µM) | FC(F)(F)c1cccc(Nc2cc(C(F)(F)F)nc3cc(C(F)(F)F)ccc23)c1 [Compound 26] | fold increase in potency (MIC) relative to the comparator (MRSA FPR3757 MIC ratio): 16 fold
– | 8 (≈ 18.2 µM) | FC(F)(F)Oc1cccc(Nc2cc(C(F)(F)F)nc3cc(C(F)(F)F)ccc23)c1 [Compound 27] | –
– | > 16 | FC(F)(F)c1ccc2c(Nc3cccc(N4CCOCC4)c3)cc(C(F)(F)F)nc2c1 [Compound 29] | –
– | > 16 | FC(F)(F)c1ccc2c(Nc3ccc(N4CCOCC4)cc3)cc(C(F)(F)F)nc2c1 [Compound 30] | –
– | 0.5 to 1 (≈ 1.13 to 2.27 µM) | FC(F)(F)Oc1ccc2c(Nc3ccc(Cl)c(Cl)c3)cc(C(F)(F)F)nc2c1 [Compound 32] | –

MIC [1] [µg/mL] | MIC [2] [µg/mL] | SMILES | also measured
1 (≈ 2.19 µM) | 0.5 to 1 (≈ 1.1 to 2.19 µM) | FC(F)(F)Oc1cccc(Nc2cc(C(F)(F)F)nc3cc(OC(F)(F)F)ccc23)c1 [Compound 33] | –
1 (≈ 2.27 µM) | 0.5 to 1 (≈ 1.13 to 2.27 µM) | FC(F)(F)Oc1ccc2c(Nc3ccc(C(F)(F)F)cn3)cc(C(F)(F)F)nc2c1 [Compound 34] | –
– | 2 (≈ 5.17 µM) | COc1ccc2c(Nc3ccc(Cl)c(Cl)c3)cc(C(F)(F)F)nc2c1 [Compound 35] | –
– | > 32 | COc1ccc2c(Nc3ccc(F)c(F)c3)cc(C(F)(F)F)nc2c1 [Compound 36] | –
– | > 32 | COc1ccc2c(Nc3cccc(OC(F)(F)F)c3)cc(C(F)(F)F)nc2c1 [Compound 37] | –
– | 32 (≈ 82.6 µM) | COc1ccc2c(Nc3ccc(C(F)(F)F)cn3)cc(C(F)(F)F)nc2c1 [Compound 38] | –
– | 0.5 (≈ 1.13 µM) | FC(F)(F)Oc1cccc2c(Nc3ccc(Cl)c(Cl)c3)cc(C(F)(F)F)nc12 [Compound 42] | –
1 (≈ 2.19 µM) | – | FC(F)(F)Oc1cccc(Nc2cc(C(F)(F)F)nc3c(OC(F)(F)F)cccc23)c1 [Compound 43] | –
– | 1 (≈ 2.27 µM) | FC(F)(F)Oc1cccc2c(Nc3ccc(C(F)(F)F)cn3)cc(C(F)(F)F)nc12 [Compound 44] | –
– | 0.5 to 2 (≈ 1.18 to 4.7 µM) | FC(F)(F)c1cc(Nc2ccc(Cl)c(Cl)c2)c2cccc(C(F)(F)F)c2n1 [Compound 45] | –
– | 1 (≈ 2.36 µM) | FC(F)(F)c1cccc(Nc2cc(C(F)(F)F)nc3c(C(F)(F)F)cccc23)c1 [Compound 46] | –
– | 0.5 (≈ 1.18 µM) | FC(F)(F)c1ccc(Nc2cc(C(F)(F)F)nc3c(C(F)(F)F)cccc23)nc1 [Compound 47] | –
– | 2 (≈ 5.11 µM) | FC(F)(F)c1ccc2c(Nc3cc(Cl)ccn3)cc(C(F)(F)F)nc2c1 [Compound 48] | fold loss of potency (MIC) relative to the comparator (MRSA FPR3757 MIC ratio): 8 fold
– | > 32 | FC(F)(F)c1ccc2c(Nc3ccc(C(F)(F)F)nc3)cc(C(F)(F)F)nc2c1 [Compound 49] | –
– | > 32 | Cn1cc(Nc2cc(C(F)(F)F)nc3cc(C(F)(F)F)ccc23)ccc1=O [Compound 50] | –
– | > 128 | Oc1ncccc1Nc1cc(C(F)(F)F)nc2cc(C(F)(F)F)ccc12 [Compound 51] | –
– | > 32 | O=c1cc(Nc2cc(C(F)(F)F)nc3cc(C(F)(F)F)ccc23)cc[nH]1 [Compound 52] | –
>32 | > 32 | COC(=O)c1cc(Nc2cc(C(F)(F)F)nc3cc(C(F)(F)F)ccc23)ccn1 [Compound 54] | –
1 to 2 | 2 (≈ 5.51 µM) | FC(F)(F)c1ccc2c(Nc3nccs3)cc(C(F)(F)F)nc2c1 [Compound 55] | –
>32 | > 32 | FC(F)(F)c1ccc2c(Nc3ncccn3)cc(C(F)(F)F)nc2c1 [Compound 56] | –
>32 | > 32 | OC1CCCN(c2cc(C(F)(F)F)nc3cc(C(F)(F)F)ccc23)C1 (stereo not drawn) [Compound 58] | –
>32 | > 32 | FC(F)(F)c1ccc2c(N3CCOCC3)cc(C(F)(F)F)nc2c1 [Compound 59] | –
>32 | > 32 | FC(F)(F)c1ccc2c(NC[C@@H]3CCCN3)cc(C(F)(F)F)nc2c1 [Compound 60] | –
>32 | > 32 | FC(F)(F)c1ccc2c(Nc3cccc4[nH]ncc34)cc(C(F)(F)F)nc2c1 [Compound 61] | –
>32 | > 32 | CN1Cc2cc(Nc3cc(C(F)(F)F)nc4cc(C(F)(F)F)ccc34)ccc2C1=O [Compound 62] | –

SMILES | MIC [1] [µg/mL] | MIC [2] [µg/mL] | also measured
O=c1cc(C(F)(F)F)[nH]c2c(OC(F)(F)F)cccc12 [Compound 5] | – | 5 (≈ 16.8 µM) | –
N#Cc1cccc(Nc2cc(C(F)(F)F)nc3cc(C(F)(F)F)ccc23)c1 [Compound 14] | >32 | – | –
CSc1cccc(Nc2cc(C(F)(F)F)nc3cc(C(F)(F)F)ccc23)c1 [Compound 24] | 0.25 to 0.5 | – | –
FC(F)(F)c1ccc2c(Nc3ccc4c(c3)OCO4)cc(C(F)(F)F)nc2c1 [Compound 28] | >4 | – | –
FC(F)(F)c1ccc2c(Nc3ccncc3)cc(C(F)(F)F)nc2c1 [Compound 53] | >32 | – | MIC [3]: > 32 µg/mL
FC(F)(F)c1ccc2c(NC3CCCCC3)cc(C(F)(F)F)nc2c1 [Compound 57] | >16 | – | MIC [3]: > 32 µg/mL
